Measurements: ChEMBL document CHEMBL1144161, “ortho-dihydroxyisoflavone derivatives from aged Doenjang (Korean fermented soypaste) and its radical scavenging activity” (Bioorg Med Chem Lett, 2008)

What was measured:
[1] = biological target: T1, Xanthine dehydrogenase/oxidase (Homo sapiens, UniProt P47989); experiment: Inhibition of xanthine oxidase assessed as decrease of uric acid generation
[2] = tested on: Radical scavenging activity; experiment: Antioxidant activity assessed as DPPH radical scavenging activity after 30 mins; assay type: functional
[3] = biological target: T1, Xanthine dehydrogenase/oxidase; experiment: Inhibition of xanthine oxidase assessed as decrease of superoxide generation

T1 sequence (P47989 whole entry): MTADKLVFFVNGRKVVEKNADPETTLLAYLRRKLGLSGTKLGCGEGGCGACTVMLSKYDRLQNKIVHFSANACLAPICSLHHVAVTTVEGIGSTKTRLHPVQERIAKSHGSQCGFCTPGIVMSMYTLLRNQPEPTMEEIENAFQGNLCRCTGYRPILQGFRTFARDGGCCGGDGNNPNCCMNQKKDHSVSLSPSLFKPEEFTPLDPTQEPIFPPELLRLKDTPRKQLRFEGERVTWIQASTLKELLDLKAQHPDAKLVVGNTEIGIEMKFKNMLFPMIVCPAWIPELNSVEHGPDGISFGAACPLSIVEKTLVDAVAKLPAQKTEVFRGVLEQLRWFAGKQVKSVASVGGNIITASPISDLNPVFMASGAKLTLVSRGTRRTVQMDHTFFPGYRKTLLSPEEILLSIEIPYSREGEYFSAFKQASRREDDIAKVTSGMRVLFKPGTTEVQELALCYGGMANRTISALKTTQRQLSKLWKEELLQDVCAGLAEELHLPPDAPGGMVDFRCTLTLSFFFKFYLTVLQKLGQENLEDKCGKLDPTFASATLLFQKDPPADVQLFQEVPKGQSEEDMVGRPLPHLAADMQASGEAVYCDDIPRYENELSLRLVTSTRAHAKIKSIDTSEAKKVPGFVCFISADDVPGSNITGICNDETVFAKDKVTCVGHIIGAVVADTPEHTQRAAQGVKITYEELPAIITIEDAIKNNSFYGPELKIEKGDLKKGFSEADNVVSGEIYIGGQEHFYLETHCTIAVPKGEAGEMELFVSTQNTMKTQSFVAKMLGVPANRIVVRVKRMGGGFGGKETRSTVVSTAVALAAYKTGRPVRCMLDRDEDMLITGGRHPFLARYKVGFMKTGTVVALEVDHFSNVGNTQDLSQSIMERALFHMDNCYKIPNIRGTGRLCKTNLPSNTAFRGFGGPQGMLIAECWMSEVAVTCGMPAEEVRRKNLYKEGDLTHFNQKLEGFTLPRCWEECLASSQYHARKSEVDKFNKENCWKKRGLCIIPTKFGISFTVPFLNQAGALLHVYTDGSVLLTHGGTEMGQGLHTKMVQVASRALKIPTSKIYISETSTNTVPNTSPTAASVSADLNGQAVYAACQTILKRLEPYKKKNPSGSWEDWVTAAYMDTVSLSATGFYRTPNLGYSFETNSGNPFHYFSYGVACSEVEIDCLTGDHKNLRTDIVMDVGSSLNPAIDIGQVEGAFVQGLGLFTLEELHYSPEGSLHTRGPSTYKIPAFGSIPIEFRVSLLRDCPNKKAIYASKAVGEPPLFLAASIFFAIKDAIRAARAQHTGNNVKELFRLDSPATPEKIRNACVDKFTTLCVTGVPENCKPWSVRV

Compound | IC50 [1] | IC50 [2] | IC50 [3]
O=c1c(-c2ccc(O)cc2)coc2cc(O)c(O)cc12 | > 1000 µM | 32.6 µM | > 1000 µM
O=c1c(-c2ccc(O)cc2)coc2cc(O)ccc12 [DAIDZEIN] | > 1000 µM | – | 430 µM
O=C1O[C@H]([C@@H](O)CO)C(O)=C1O [ASCORBIC ACID] | – | 52.3 µM | –
O=c1c(-c2ccc(O)cc2)coc2c(O)c(O)ccc12 | > 1000 µM | 21.5 µM | 6.6 µM
O=c1c(-c2ccc(O)c(O)c2)coc2cc(O)ccc12 | > 1000 µM | 28.7 µM | 16.8 µM
O=c1c(-c2ccc(O)cc2)coc2cc(O)cc(O)c12 [GENISTEIN] | > 1000 µM | – | 232 µM
Cc1c(C)c2c(c(C)c1O)CCC(C)(C(=O)O)O2 (configuration not stated) [TROLOX] | – | 48.9 µM | –
COc1cc2c(=O)c(-c3ccc(O)cc3)coc2cc1O [GLYCITEIN] | > 1000 µM | – | 683 µM
